Experimental data: ChEMBL document CHEMBL4043153, “Lead selection of antiparasitic compounds from a focused library of benzenesulfonyl derivatives of heterocycles” (Bioorg Med Chem Lett, 2017)

Experiments:
Type in all cases: functional
Leishmania donovani [1] = assay: Antiparasitic activity against Leishmania donovani MHOM-ET-67/L82 axenic amastigotes assessed as growth inhibition at 0.8 ug/ml after 72 hrs by resazurin dye-based fluorometric analysis relative to control; conditions: MHOM-ET-67/L82, 72 h, read-out: GI
Leishmania donovani [2] = assay: Antiparasitic activity against Leishmania donovani MHOM-ET-67/L82 axenic amastigotes assessed as growth inhibition at 4.8 ug/ml after 72 hrs by resazurin dye-based fluorometric analysis relative to control; conditions: MHOM-ET-67/L82, 72 h, read-out: GI
Trypanosoma cruzi [3] = assay: Antiparasitic activity against Trypanosoma cruzi Tulahuen C4 intracellular amastigotes infected in rat L6 cells assessed as growth inhibition at 0.8 ug/ml after 96 hrs by CPRG/Nonidet reagent based photometric analysis relative to control; conditions: Tulahuen C4, L6, 96 h, read-out: GI
Trypanosoma cruzi [4] = assay: Antiparasitic activity against Trypanosoma cruzi Tulahuen C4 intracellular amastigotes infected in rat L6 cells assessed as growth inhibition at 4.8 ug/ml after 96 hrs by CPRG/Nonidet reagent based photometric analysis relative to control; conditions: Tulahuen C4, L6, 96 h, read-out: GI
Plasmodium falciparum [5] = assay: (§1) Antiparasitic activity against intraerythrocytic form of chloroquine/pyrimethamine-resistant Plasmodium falciparum K1 infected in human RBC assessed as growth inhibition at 0.8 ug/ml preincubated for 48 hrs followed by [3H]-hypoxanthine addition measured after 24 hrs by liquid scintillation counting analysis relative to control; conditions: read-out: GI
Plasmodium falciparum [6] = assay: as §1, with “4.8” for “0.8”; conditions: read-out: GI
[7] = system: Trypanosoma brucei rhodesiense; assay: Antiparasitic activity against Trypanosoma brucei rhodesiense STIB 900 trypomastigote bloodstream form assessed as growth inhibition at 0.8 ug/ml after 72 hrs by resazurin dye-based fluorometric analysis relative to control; conditions: STIB 900, 72 h, read-out: GI
[8] = system: Trypanosoma brucei rhodesiense; assay: Antiparasitic activity against Trypanosoma brucei rhodesiense STIB 900 trypomastigote bloodstream form assessed as growth inhibition at 4.8 ug/ml after 72 hrs by resazurin dye-based fluorometric analysis relative to control; conditions: STIB 900, 72 h, read-out: GI

SMILES	inhibition of growth at 0.8 µg/mL (Leishmania donovani [1]) [%]	inhibition of growth at 4.8 µg/mL (Leishmania donovani [2]) [%]	inhibition of growth at 0.8 µg/mL (Trypanosoma cruzi [3]) [%]	inhibition of growth at 4.8 µg/mL (Trypanosoma cruzi [4]) [%]	inhibition of growth at 0.8 µg/mL (Plasmodium falciparum [5]) [%]	inhibition of growth at 4.8 µg/mL (Plasmodium falciparum [6]) [%]	inhibition of growth at 0.8 µg/mL [7] [%]	inhibition of growth at 4.8 µg/mL [8] [%]
O=S(=O)(c1ccc(C(F)(F)F)cc1)N1CCc2ccccc2C1	40.8	58.3	0	27.3	0.6	22.7	0.7	5.8
CC(=O)c1ccc(S(=O)(=O)n2ccc3ccccc32)cc1	0	25.9	0	0	12.2	40.8	2.2	0
O=S(=O)(c1ccc(C(F)(F)F)cc1)n1nnc2ccccc21	21.8	44.8	5.5	3	0	1	3.4	0.4
CC(=O)Nc1ccc(S(=O)(=O)N2c3ccccc3CC2C)cc1 (stereo not drawn)	6.4	14.7	0	46.7	4.2	15.6	0	1.7
O=S(=O)(c1ccc(C(F)(F)F)cc1)N1CCCc2ccccc21	20.1	85	0	22.6	7.2	75.3	7.2	18.1
O=S(=O)(c1ccc(F)cc1)N1CCc2ccccc21	11	62.7	0	0.2	1.5	28.2	12.6	19.2
O=[N+]([O-])c1ccccc1S(=O)(=O)N1CCc2ccccc21	4	81.5	0	24.5	4	48	10.4	17.9
CC1Cc2ccccc2N1S(=O)(=O)c1ccc(C(F)(F)F)cc1 (stereo not drawn)	17.9	86.2	0	54.6	12.7	91.4	0	1.2
CC(C)(C)c1ccc(S(=O)(=O)N2CCc3ccccc3C2)cc1	31.6	100	0	26.7	11.6	86	10.8	8.7
C[C@@H]1CC[C@H]2[C@@H](C)C(=O)O[C@@H]3O[C@@]4(C)CC[C@@H]1[C@]32OO4 [ARTEMISININ]	–	–	–	–	80	100	–	–
CC1Cc2ccccc2N1S(=O)(=O)c1ccccc1[N+](=O)[O-] (stereo not drawn)	19.3	52.4	0	15.1	14.8	50.5	6.3	9.6
O=S(=O)(c1ccc(Br)cc1)n1ccc2ccccc21	11.5	48.1	0	0	0	45.9	0	0
O=[N+]([O-])c1ccccc1S(=O)(=O)n1ccc2ccccc21	–	–	< 40	–	–	–	–	–
O=C(Cn1ccnc1[N+](=O)[O-])NCc1ccccc1 [BENZNIDAZOLE]	–	–	63.3	98.5	–	–	–	–
